Reference: ChEMBL document CHEMBL1201862, “PubChem BioAssay data set” (2004)
Activity calls are given as the source filed them.

Key:
[1] = HeLa cell viability loss – 24 h, dry powder, set 2, cytotoxicity control, dose response (AID 651774); type: functional, cell-based
[2] = potency of ADAM10 substrate cleavage blockers – biochemical, QFRET, dose response (AID 743254);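 further: ADAM10 enzyme with the DM2 quenched FRET peptide as substrate; EDANS fluorescence gain as the protease cuts the substrate; inhibitor potency against ADAM10 proteolytic activity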
[3] = viability of PTEN-deleted HCT116 cells – cell-based, HCT116 PTEN knockout, dose response (AID 1047); type: functional;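 further: HCT116 colon tumor cells with PTEN knocked out; cells exposed to compound for 60 hours before readout; potency for loss of cell viability measured by luminescence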
[4] = molecular target: Cytochrome P450 2C9 (Homo sapiens, UniProt P11712)
Sequence of Cytochrome P450 2C9 (P11712 whole entry, the tested form may be a part): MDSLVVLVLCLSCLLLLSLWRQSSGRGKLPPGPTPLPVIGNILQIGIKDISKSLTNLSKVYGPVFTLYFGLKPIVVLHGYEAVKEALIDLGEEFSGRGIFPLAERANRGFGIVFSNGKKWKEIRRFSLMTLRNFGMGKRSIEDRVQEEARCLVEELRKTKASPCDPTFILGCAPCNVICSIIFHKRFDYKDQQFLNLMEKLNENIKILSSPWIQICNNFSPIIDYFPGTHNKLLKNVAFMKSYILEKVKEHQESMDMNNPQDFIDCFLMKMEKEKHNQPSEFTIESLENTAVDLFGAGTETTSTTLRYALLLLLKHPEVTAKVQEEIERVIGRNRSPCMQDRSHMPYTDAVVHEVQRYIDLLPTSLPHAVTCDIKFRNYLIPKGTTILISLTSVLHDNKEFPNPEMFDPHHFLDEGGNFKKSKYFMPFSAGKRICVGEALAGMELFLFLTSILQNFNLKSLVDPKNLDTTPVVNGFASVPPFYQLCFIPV

[5] = molecular target: Disintegrin and metalloproteinase domain-containing protein 17 (Homo sapiens, UniProt P78536); assay: inhibition of ADAM17 substrate cleavage – biochemical, quenched FRET substrate, counter-screen for ADAM10 exosite inhibitor project, dose response (AID 743253)
Sequence of Disintegrin and metalloproteinase domain-containing protein 17 (P78536 whole entry, the tested form may be a part): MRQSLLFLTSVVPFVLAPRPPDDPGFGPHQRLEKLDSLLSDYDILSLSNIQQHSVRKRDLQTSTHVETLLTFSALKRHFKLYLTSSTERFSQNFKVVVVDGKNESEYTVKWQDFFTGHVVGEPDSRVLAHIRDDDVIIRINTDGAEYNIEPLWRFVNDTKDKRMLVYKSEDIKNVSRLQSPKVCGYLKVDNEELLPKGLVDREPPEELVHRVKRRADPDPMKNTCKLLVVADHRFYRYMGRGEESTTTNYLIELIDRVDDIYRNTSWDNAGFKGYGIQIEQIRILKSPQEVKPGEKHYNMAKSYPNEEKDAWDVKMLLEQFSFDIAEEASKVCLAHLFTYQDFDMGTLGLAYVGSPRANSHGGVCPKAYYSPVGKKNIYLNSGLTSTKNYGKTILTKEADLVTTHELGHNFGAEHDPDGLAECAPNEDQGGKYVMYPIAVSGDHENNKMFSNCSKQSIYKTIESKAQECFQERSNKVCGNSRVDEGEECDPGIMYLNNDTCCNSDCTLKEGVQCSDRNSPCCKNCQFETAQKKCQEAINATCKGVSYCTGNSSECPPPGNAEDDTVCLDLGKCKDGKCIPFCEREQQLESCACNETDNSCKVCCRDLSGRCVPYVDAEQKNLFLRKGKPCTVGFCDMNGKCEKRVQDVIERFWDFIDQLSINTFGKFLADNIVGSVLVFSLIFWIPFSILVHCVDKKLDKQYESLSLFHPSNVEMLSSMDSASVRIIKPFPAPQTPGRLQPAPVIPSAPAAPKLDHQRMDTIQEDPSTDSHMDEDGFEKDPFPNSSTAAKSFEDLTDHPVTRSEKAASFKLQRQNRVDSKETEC

[6] = viability of HCT116 lacking mutant beta-catenin – cell-based, human colon tumor, dose response (AID 1045); type: functional;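 further: HCT116 colon tumor cells with beta catenin knocked out; cells exposed to compound for 60 hours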
[7] = Luminescence Cell-Based Dose Retest to Confirm Inhibitors of Cancer Stem Cells. [Related pubchem assays (depositor defined):AID2717, AID2721]; type: functional; conditions: Homo sapiens
[8] = molecular target: Fructose-bisphosphate aldolase (Mycobacterium tuberculosis, UniProt P9WQA3); assay: Fluorescence-based biochemical high throughput dose response assay for inhibitors of the fructose-bisphosphate aldolase (FBA) of M. tuberculosis.; type: functional
Sequence of Fructose-bisphosphate aldolase (P9WQA3 whole entry): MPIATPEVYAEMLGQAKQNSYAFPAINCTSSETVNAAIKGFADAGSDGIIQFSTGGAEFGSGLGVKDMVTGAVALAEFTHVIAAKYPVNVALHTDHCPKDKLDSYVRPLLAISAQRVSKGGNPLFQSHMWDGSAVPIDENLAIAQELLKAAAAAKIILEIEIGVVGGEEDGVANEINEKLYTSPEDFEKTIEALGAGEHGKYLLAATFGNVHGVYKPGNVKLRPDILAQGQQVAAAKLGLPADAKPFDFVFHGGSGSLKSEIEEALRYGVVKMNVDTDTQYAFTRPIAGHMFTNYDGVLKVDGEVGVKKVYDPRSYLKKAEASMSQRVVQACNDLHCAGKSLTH

[9] = molecular target: ADP-ribosylation factor GTPase-activating protein 1 (Rattus norvegicus, UniProt Q62848); assay: Fluorescence polarization-based biochemical high throughput dose response screening assay to identify inhibitors of ADP-ribosylation factor GTPase activating protein 1 (ARFGAP1).; type: functional
Sequence of ADP-ribosylation factor GTPase-activating protein 1 (Q62848 whole entry, the tested form may be a part): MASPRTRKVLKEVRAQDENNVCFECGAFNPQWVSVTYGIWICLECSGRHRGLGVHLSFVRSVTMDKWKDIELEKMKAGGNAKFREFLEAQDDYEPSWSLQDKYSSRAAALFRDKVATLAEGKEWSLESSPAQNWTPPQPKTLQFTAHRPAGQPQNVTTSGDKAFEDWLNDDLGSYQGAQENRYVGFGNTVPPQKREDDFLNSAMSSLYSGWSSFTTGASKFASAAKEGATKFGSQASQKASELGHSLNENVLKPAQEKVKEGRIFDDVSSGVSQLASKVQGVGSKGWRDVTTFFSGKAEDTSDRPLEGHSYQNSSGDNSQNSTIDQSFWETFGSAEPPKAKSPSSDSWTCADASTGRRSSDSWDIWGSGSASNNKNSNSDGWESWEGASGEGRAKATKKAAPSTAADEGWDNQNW

[10] = molecular target: Arf-GAP with SH3 domain, ANK repeat and PH domain-containing protein 1 (Homo sapiens, UniProt Q9ULH1); type: functional;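 further: biochemical fluorescence polarization dose–response screen measuring inhibition of ASAP1; ASAP1 GAP domain stimulating GTP hydrolysis by truncated human ARF1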
Sequence of Arf-GAP with SH3 domain, ANK repeat and PH domain-containing protein 1 (Q9ULH1 whole entry, the tested form may be a part): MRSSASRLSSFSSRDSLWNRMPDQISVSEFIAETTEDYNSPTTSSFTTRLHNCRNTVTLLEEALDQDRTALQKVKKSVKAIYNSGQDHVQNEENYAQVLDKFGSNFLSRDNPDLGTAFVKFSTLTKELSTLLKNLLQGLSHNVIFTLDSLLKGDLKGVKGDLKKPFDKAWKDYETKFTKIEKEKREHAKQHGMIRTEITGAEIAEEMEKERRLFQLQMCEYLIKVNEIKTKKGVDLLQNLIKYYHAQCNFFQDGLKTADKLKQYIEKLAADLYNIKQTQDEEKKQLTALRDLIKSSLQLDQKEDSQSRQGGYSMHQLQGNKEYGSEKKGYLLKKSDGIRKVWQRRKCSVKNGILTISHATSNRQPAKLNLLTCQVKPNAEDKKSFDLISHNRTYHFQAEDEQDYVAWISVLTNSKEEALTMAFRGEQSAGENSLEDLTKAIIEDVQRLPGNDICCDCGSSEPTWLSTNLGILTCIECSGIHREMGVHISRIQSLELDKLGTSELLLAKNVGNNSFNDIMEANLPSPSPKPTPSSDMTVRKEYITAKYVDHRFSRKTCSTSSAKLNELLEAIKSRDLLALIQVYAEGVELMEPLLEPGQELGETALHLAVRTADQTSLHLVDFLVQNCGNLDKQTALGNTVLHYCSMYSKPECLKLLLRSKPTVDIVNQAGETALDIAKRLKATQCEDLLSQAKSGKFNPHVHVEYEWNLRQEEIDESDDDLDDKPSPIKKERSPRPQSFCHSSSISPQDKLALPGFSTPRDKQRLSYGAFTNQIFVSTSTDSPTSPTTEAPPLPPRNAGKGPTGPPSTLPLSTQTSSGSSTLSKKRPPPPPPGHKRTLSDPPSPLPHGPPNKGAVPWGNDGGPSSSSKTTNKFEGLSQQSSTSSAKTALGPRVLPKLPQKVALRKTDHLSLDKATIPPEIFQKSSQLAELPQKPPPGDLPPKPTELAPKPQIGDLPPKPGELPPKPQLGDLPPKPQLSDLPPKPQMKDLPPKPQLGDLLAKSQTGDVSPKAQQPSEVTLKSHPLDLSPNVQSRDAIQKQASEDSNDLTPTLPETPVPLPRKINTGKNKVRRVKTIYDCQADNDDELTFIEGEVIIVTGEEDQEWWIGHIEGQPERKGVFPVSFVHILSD

[11] = molecular target: DNA repair protein RAD52 homolog (Homo sapiens, UniProt P43351); type: functional, biochemical
Sequence of DNA repair protein RAD52 homolog (P43351 whole entry): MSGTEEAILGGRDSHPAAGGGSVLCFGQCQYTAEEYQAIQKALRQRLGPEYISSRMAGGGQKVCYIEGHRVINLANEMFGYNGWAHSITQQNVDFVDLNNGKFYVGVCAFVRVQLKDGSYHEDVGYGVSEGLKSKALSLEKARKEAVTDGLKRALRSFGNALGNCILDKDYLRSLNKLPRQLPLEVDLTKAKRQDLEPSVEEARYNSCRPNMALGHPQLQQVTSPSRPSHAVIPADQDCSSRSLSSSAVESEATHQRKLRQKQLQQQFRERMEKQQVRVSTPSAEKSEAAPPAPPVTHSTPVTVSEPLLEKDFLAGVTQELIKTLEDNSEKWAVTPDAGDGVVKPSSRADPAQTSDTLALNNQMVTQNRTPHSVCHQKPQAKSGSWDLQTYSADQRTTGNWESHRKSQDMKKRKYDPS

[12] = NIH3T3 cell viability loss – ATP luminescence, mouse fibroblasts, counter-screen, dose response (AID 2010); type: functional, cell-based;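 further: cells exposed to compound for about 90 hours before reading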
[13] = molecular target: T1, Short transient receptor potential channel 4 (Mus musculus, UniProt Q9QUQ5); assay: block of DAMGO-driven TRPC4 calcium entry – cell-based, HEK293 TRPC4/mu-opioid, Fluo-4 calcium, dose response (AID 434942); type: functional;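 further: potency of inhibitors blocking the TRPC4 calcium response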
T1 sequence (Q9QUQ5 whole entry): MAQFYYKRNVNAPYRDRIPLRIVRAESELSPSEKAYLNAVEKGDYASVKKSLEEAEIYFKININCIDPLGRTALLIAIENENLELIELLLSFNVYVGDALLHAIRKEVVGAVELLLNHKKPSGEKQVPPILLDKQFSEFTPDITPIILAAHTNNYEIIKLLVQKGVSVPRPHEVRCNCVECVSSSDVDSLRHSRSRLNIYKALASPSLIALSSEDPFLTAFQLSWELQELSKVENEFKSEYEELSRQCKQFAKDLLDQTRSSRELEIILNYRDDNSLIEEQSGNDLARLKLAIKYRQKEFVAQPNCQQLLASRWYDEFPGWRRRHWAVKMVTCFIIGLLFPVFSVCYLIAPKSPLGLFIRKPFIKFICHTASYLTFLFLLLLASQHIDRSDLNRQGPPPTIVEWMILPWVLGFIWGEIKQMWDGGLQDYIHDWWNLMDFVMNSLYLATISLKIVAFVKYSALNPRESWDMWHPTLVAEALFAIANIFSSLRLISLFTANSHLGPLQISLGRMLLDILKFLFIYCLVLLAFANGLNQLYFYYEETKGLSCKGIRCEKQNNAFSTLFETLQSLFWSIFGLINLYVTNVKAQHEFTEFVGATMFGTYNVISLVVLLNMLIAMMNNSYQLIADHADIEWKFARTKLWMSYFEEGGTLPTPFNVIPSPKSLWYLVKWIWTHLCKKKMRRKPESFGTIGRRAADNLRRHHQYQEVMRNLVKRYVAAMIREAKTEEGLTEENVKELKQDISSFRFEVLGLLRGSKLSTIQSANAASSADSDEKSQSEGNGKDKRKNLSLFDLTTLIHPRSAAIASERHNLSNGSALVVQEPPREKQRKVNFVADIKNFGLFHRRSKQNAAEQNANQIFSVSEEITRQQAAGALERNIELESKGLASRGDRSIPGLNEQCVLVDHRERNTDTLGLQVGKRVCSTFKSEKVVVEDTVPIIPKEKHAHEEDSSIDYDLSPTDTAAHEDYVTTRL

[14] = Trypanosoma cruzi growth suppression in host cells – NIH3T3 host cells, beta-gal luminescence, confirmation (AID 2044); type: functional, cell-based;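 further: intracellular parasites grown in NIH/3T3 mouse fibroblasts as host cells; luminescent beta-galactosidase reporter signal from transgenic T. cruzi replicating inside host cells; inhibitors lower the luminescence signal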
[15] = molecular target: T2, DNA repair and recombination protein RAD54-like (Homo sapiens, UniProt Q92698); assay: RAD54 Holliday junction migration blockers – biochemical, fluorescence, cherry-picked samples, dose series, confirmation (AID 651657); type: functional
T2 sequence (Q92698 whole entry): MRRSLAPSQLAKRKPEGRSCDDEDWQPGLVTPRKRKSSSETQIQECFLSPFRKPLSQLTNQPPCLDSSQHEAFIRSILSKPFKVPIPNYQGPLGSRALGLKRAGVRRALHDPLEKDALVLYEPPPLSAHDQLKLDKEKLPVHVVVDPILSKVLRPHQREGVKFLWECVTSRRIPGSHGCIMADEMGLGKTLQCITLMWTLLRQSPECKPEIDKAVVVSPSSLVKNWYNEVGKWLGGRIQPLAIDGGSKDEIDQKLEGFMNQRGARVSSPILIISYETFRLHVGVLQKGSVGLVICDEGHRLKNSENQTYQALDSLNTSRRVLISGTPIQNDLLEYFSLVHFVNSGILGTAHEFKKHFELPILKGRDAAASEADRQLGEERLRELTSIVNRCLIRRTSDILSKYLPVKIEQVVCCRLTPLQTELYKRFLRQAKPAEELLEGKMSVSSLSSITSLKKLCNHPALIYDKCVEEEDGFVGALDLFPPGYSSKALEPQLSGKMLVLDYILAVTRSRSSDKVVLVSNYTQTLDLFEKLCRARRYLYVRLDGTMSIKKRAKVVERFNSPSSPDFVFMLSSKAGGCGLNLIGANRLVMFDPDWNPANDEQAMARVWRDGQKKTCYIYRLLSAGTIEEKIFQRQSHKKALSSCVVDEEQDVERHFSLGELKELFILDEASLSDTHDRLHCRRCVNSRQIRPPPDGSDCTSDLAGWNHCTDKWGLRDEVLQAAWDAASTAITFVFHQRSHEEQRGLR

[16] = molecular target: Albumin (Bos taurus, UniProt P02769); assay: Counterscreen for inhibitors of T-cell receptor (TCR)-CD3 interaction: Fluorescence-based biochemical high throughput dose response assay to identify inhibitors of T-cell receptor (TCR)-CD3 interaction using a TAMRA-labeled BSA probe.; type: functional
Sequence of Albumin (P02769 whole entry): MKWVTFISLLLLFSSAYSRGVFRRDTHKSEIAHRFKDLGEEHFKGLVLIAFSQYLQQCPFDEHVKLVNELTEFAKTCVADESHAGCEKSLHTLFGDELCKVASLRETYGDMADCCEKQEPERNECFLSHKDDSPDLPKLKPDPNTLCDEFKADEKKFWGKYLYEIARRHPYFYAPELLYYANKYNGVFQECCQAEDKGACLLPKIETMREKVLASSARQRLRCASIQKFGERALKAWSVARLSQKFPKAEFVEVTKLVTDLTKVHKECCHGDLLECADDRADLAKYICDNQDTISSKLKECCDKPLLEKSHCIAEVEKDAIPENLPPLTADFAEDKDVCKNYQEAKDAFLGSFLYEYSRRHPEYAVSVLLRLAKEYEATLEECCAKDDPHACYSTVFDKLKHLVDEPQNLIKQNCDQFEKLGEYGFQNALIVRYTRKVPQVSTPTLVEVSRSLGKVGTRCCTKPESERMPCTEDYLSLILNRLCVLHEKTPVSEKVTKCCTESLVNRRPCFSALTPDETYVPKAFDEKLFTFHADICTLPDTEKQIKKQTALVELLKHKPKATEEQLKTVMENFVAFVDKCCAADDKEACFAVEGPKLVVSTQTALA

[17] = toxicity toward HepG2 liver cells – cell-based, plate reader, cherry-pick, antagonist series, cytotoxicity control, dose response (AID 743416); type: functional
[18] = blockade of melanocortin 4 receptor signaling – cell-based, plate reader, cherry pick, counter-screen for LGR2 antagonist project, dose response (AID 743444); type: functional;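 further: transfected HEK 293 cells stimulated with alpha-MSH peptide; potency of inhibitors of the alpha-MSH evoked signal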
[19] = viability loss in HEK293 cells – cell-based, plate reader, cherry-picked samples, cytotoxicity control, dose response (AID 743446); type: functional
[20] = A549 cell cytotoxicity, dose response, cytotoxicity control, plate reader, cherry-pick, antagonist series (AID 743412); type: functional, cell-based
[21] = blockers of bursicon-stimulated LGR2 cAMP reporter – cell-based, HEK293, CRE-luciferase reporter, cherry pick, set 2, dose response (AID 743343); type: functional;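 further: transfected cells were stimulated with diluted bursicon conditioned medium after compound addition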

Which AC50 [1] does the source give for `CCn1nnnc1NCc1cccn1C` here?
Its AC50 is 31.1 µM (active).

Which IC50 [2] does the source give for `C=C(C)COc1ccc(-c2[nH]nc(C)c2-c2ccc(OC)cc2)c(O)c1` here?
Its IC50 is 9.09 µM (active).

And the EC50 [3]?
Its EC50 is 17.7 µM (active).

And the AC50 [4]?
The AC50 was 25.1 µM (inconclusive).

And the IC50 [5]?
The IC50 was > 69.6 µM (inactive).

And the EC50 [6]?
The EC50 was 18 µM (active).

And the AC50 [7]?
The AC50 was 3.41 µM (active).

With `Cc1coc2c1c(C)cc1oc(=O)c(CC(=O)NCCCN3CCCC3=O)c(C)c12` as the compound, how does the IC50 [8] read?
The IC50 was 1.43 µM (active).

For `Cc1ccc2nc(SCC(=O)N3CCC(C)CC3)nc(=O)n2c1`, which IC50 [9] is on record?
The IC50 was 26.2 µM (inactive).

What about the IC50 [10] of the same compound?
Its IC50 is 22.9 µM (inactive).

Which AC50 [1] does the source give for `CCn1nnnc1NCc1ccc(N2CCCC2)cc1` here?
The AC50 was > 70 µM (inactive).

With `COc1cccc(NC(=O)Cn2nnc(C(=O)Nc3cc(Cl)ccc3OC)c2N)c1` as the compound, how does the IC50 [9] read?
Its IC50 is 5.04 µM (active).

What about the IC50 [10] of the same compound?
Its IC50 is 8.8 µM (active).

What does the source list for `COc1ccc(Nc2nc(NCC3CCCO3)c3ccccc3n2)c(OC)c1` (configuration not stated)?
AC50 [11]: 13.4 µM (active); EC50 [12]: > 30 µM (not active); EC50 [13]: 376 nM (active); EC50 [14]: 465 nM (active); AC50 [15]: 57.9 µM (active)

For `Cc1ccc(N2C(=O)/C(=C\NNC(=O)C3COc4ccccc4O3)c3ccccc3C2=O)cc1` (configuration not stated), which IC50 [16] is on record?
Its IC50 is > 94.1 µM (inactive).

Which IC50 [8] does the source give for `COc1ccc(S(=O)(=O)N(CCCN2CCCC2=O)Cc2cc3c(C)cc(C)cc3nc2O)cc1` here?
The IC50 was > 3.33 µM (active).

With `COc1ccc2nc(NC(=O)c3ccco3)sc2c1` as the compound, how does the AC50 [17] read?
The AC50 was > 52 µM (inactive).

And the AC50 [18]?
Its AC50 is 9.96 µM (active).

What about the AC50 [19] of the same compound?
Its AC50 is > 52 µM (inactive).

And the AC50 [20]?
The AC50 was > 52 µM (inactive).

And the AC50 [21]?
Its AC50 is 6.48 µM (active).

With `FC(F)(F)c1cccc(NC(S)=NCC2COc3ccccc3O2)c1` (configuration not stated) as the compound, how does the IC50 [2] read?
The IC50 was 16.8 µM (inactive).

What about the IC50 [5] of the same compound?
The IC50 was > 69.5 µM (inactive).
